We go through twelve compounds from ChEMBL document CHEMBL4699469, “Recent Developments in the Biology and Medicinal Chemistry of CDK9 Inhibitors: An Update” (J Med Chem, 2020).

Molecules are shown by their SMILES. Converted amounts (≈) assume the structure as drawn.

In series [1] the test system is MOLM-13. The series can be described thus: Antiproliferative activity against human MOLM-13 cells incubated for 72 hrs by Cell Titre-Glo luminescent assay. Type of series: functional, cell-based. The conditions noted are these: MOLM-13, 72 h.
Series [2] concerns A2780. The series can be described thus: Antiproliferative activity against human A2780 cells incubated for […] by crystal violet staining based assay. The series is classed as functional, cell-based.
In series [3] the target is T1, Cyclin-dependent kinase 2 (Homo sapiens, UniProt P24941). Nature of the series: Inhibition of CDK2 (unknown origin) using Ulight-labeled substrate by TR-FRET LANCE method. For orientation: In TR-FRET formats the signal depends on donor and acceptor labels being close together.
The target in series [4] is T2, Cyclin-dependent kinase 7 (Homo sapiens, UniProt P50613). Nature of the series: Inhibition of CDK7 (unknown origin) using Ulight-labeled substrate by TR-FRET LANCE method.
Series [5] concerns the target Cyclin-dependent kinase 8 (Homo sapiens, UniProt P49336). The series can be described thus: Inhibition of CDK8 (unknown origin) by TR-FRET assay.
In series [6] the test system is NCI-H929. Nature of the series: cells. The settings on record: Homo sapiens, NCI-H929, 24 h.
In series [7] the target is Cyclin-dependent kinase 4 (Homo sapiens, UniProt P11802). Nature of the series: Inhibition of CDK4 (unknown origin) using Ulight-labeled substrate by TR-FRET LANCE method.
In series [8] the target is T3, Cyclin-dependent kinase 1 (Homo sapiens, UniProt P06493). The series can be described thus: Inhibition of CDK1 (unknown origin) using Ulight-labeled substrate by TR-FRET LANCE method.
Series [9] concerns the target Cyclin-dependent kinase 6 (Homo sapiens, UniProt Q00534). The series can be described thus: Inhibition of CDK6 (unknown origin) using Ulight-labeled substrate by TR-FRET LANCE method.
For series [10], the system named is MV4-11. Nature of the series: cells. The conditions noted are these: Homo sapiens, MV4-11, 24 h.
Series [11] is described as follows: Plasma clearance in Sprague-Dawley rat at 1 mg/kg, iv measured after 24 hrs by reverse phase HPLC analysis. Type of series: ADME, organism-based.
Series [12] deals with T4, CDK9/cyclin T1 (Homo sapiens, UniProt P50750). The series can be described thus: Inhibition of His-tagged human CDK9/cyclin T1 expressed in insect cells using biotinylated-cdk7tide peptide incubated for 5 hrs by Alpha Screen assay. (In general: Alpha assays give light when donor and acceptor beads are brought close together.)
Series [13] addresses CDK7/Cyclin H/MNAT1 (Homo sapiens, UniProt P50613). Nature of the series: Displacement of Alexa Fluor 647 ADP Tracer from human CDK7/CyclinH/MAT1 expressed in baculovirus expression system incubated for 1 hr by adapta assay.
For series [14], the target named is T4, CDK9/cyclin T1. The series can be described thus: Displacement of Alexa Fluor 647 ADP Tracer from His-tagged human CDK9/Cyclin T1 expressed in baculovirus expression system incubated for 1 hr by adapta assay.
Series [15] deals with MOLT-4. The series can be described thus: Antiproliferative activity against human MOLT4 cells incubated for 72 hrs by cell titer glo assay. Type of series: functional, cell-based. The conditions noted are these: MOLT-4, 72 h.
Series [16] concerns the target T4, CDK9/cyclin T1. The series can be described thus: Inhibition of human CDK9 (1 to 372 residues)/N-terminal GST-fused His-tagged CyclinT1 (1 to 726 residues) expressed in baculovirus expression system incubated for 0.5 to 1 hr by TR-FRET assay.
In series [17] the target is Cyclin-dependent kinase 2/cyclin E1 (Homo sapiens, UniProt P24941). Nature of the series: Inhibition of His-tagged human CDK2/cyclin E1 expressed in insect cells using biotin Ttds-YISPLKSPYKISEG as substrate preincubated for 15 mins followed by ATP and substrate addition and measured after 25 mins by TR-FRET assay.
In series [18] the target is Glycogen synthase kinase-3 beta (Homo sapiens, UniProt P49841). The series can be described thus: Inhibition of human GSK3beta.
Series [19] concerns the target CDK3/Cyclin E (Homo sapiens, UniProt Q00526). The series can be described thus: Inhibition of C-terminal His6-tagged human CDK3/N-terminal GST-tagged human cyclin E expressed in baculovirus infected Sf21 insect cells.
The nature of series [20]: Oral bioavailability in Wistar rats at 0.6 to 1 mg/kg measured up to 24 hrs by LC-MS/MS analysis. The series is classed as ADME, organism-based. The settings on record: rat, in vivo, dose 0.6-1 mg/kg.
Series [21] is described as follows: Thermodynamic solubility of the compound at pH 6.5 incubated for 24 hrs by equilibrium shake flask. Type of series: physicochemical. The conditions noted are these: buffer, read-out: Therm_solubility.
Series [22] has as its target Glycogen synthase kinase-3 alpha (Homo sapiens, UniProt P49840). The series can be described thus: Inhibition of human GSK3alpha.
In series [23] the target is T2, Cyclin-dependent kinase 7. The series can be described thus: Binding affinity to wild-type human full length CDK7 (M1 to L344 residues) expressed in mammalian expression system by Kinomescan method.
The target in series [24] is T5, Cyclin-dependent kinase 9 (Homo sapiens, UniProt P50750). Nature of the series: Binding affinity to wild-type human full length CDK9 (M1 to F372 residues) expressed in bacterial expression system by Kinomescan method.
Series [25] relates to MOLM-13. The series can be described thus: Antiproliferative activity against human MOLM-13 cells. Type of series: functional, cell-based.
A short description of series [26]: Oral bioavailability in mouse. The conditions noted are these: in vivo. The series is classed as ADME, organism-based.
Series [27] in a line: Solubility of the compound at pH 8.7. The series is classed as physicochemical. The conditions noted are these: buffer.
Series [28] has as its system MV4-11. Nature of the series: Antitumor activity against human MV4-11 cells xenografted in mouse assessed as tumor growth inhibition at 7.5 mg/kg relative to control. The series is classed as functional. The conditions noted are these: read-out: TGI. On the technique in general: Xenograft models place foreign cells or tissue in a host animal.
Series [29] is described as follows: Solubility of the compound at pH 6.8. Type of series: physicochemical. The settings on record: buffer.
Series [30] addresses T5, Cyclin-dependent kinase 9.
In series [31] the test system is OPM-2. Nature of the series: Growth inhibition of human OPM-2 cells incubated for 24 hrs. The series is classed as functional.
Series [32] is described as follows: Half life in monkey. The series is classed as ADME, Macaca mulatta. The settings on record: rhesus monkey, in vivo.
Series [33] is described as follows: Half life in rat. Type of series: ADME. The settings on record: in vivo.
The nature of series [34]: Half life in dog. The series is classed as ADME, Canis lupus familiaris. The settings on record: in vivo.
The target in series [35] is T2, Cyclin-dependent kinase 7. Nature of the series: Inhibition of CDK7 in human MCF7 cells assessed as RNA polymerase2 phosphorylation at serine 5 residue residue incubated for 6 hrs by immunoblot analysis. The series is classed as cell-based.
Series [36] concerns the target T3, Cyclin-dependent kinase 1. Nature of the series: Inhibition of CDK1 in human MCF7 cells assessed as reduction in PP1alpha phosphorylation at T320 residue incubated for 6 hrs by immunoblot analysis. The series is classed as cell-based.
Series [37] deals with Cyclin-dependent kinase 4/6 (Homo sapiens, UniProt P11802+Q00534). The series can be described thus: Inhibition of CDK4/6 in human MCF7 cells assessed as reduction in Rb phosphorylation at S807/811 residue incubated for 6 hrs by immunoblot analysis. The series is classed as cell-based.
The target of series [38] is T1, Cyclin-dependent kinase 2. The series can be described thus: Inhibition of CDK2 in human MCF7 cells assessed as reduction in Rb phosphorylation at T821 residue incubated for 6 hrs by immunoblot analysis. The series is classed as cell-based.

A word on the IC50: it is the concentration that gives 50% inhibition. In the case of `Cc1cc(CS(C)(=O)=O)cc(Nc2ncc(F)c(-c3ccc(F)c4ccoc34)n2)c1`, the concentration for half-maximal inhibition (IC50) was 46 nM in series [1] and 38 nM in [2].

One may read the clearance as the rate of elimination divided by the concentration. On to `COc1ccc(F)cc1-c1c(F)cnc2[nH]c(C3=CCN([C@H]4CC[C@H](C(=O)O)CC4)CC3)cc12`, for which the half-inhibitory concentration (IC50) in series [3] was greater than 320 nM; in series [4] it was greater than 320 nM; in series [5], greater than 320 nM; in series [6] it was 40 nM; in series [7], 162 nM; in series [8], greater than 320 nM. In addition, the IC50 turned out to be 101 nM in series [9] and 138 nM in series [10]. The clearance in series [11] was 10.5 mL/min/kg.

With `O=C(Nc1cc(-c2cccc(NCc3cccc(F)c3)n2)c(Cl)cn1)[C@H]1CNCCO1`, the IC50 in series [12] was less than 8 nM.

As to `COC[C@H](C)N[C@H]1CC[C@H](Nc2cc(-c3cccc(NCC4(C#N)CCOCC4)n3)c(Cl)cn2)CC1`, the half-maximal inhibitory concentration (IC50) in [13] is greater than 10000 nM; in series [14], less than 0.5 nM; in series [15], 9 nM.

As to `COc1ccc(F)cc1-c1ncnc2[nH]c(C3CCNCC3)cc12`, the concentration for half-maximal inhibition (IC50) in [16] turned out to be 13 nM.

The compound `COc1cc(F)ccc1-c1ncnc(Nc2cccc(CCS(C)(=O)=O)c2)n1` showed an IC50 in series [17] of 558 nM.

A word on the bioavailability: it is the share of a dose that reaches the circulation, judged against a reference dose that is usually intravenous. As to `COc1cc(F)ccc1-c1ncnc(Nc2cccc(C[S@](C)(=N)=O)c2)n1` [ATUVECICLIB], the concentration for half-maximal inhibition (IC50) is 87 nM in series [18], greater than 890 nM in series [19] and 45 nM in series [22]. The same compound returned a bioavailability in series [20] of 54%. Moreover, in [21], the solubility thermodynamic at 24 h was found to be 479 µg/mL (≈ 1.24 mM).

In turn, `CC(C)(C)c1cnc(CSc2cnc(NC(=O)C3CCNCC3)s2)o1` [BMS-387032] yielded an IC50 in [15] of 173 nM.

In general, Kd refers to the equilibrium constant for the complex coming apart. Regarding `Cn1ncc(-c2nc(N[C@H]3CC[C@H](N)CC3)ncc2Cl)c1CC1CC1` [BTX-A51], the dissociation constant Kd in [23] turned out to be 1.3 nM; in series [24], 4 nM.

The compound `COc1cc(F)ccc1-c1cc(Nc2cc(CS(C)(=N)=O)ccn2)ncc1F` (centres undefined) [ENITOCICLIB] displayed a 50% inhibitory concentration (IC50) in series [25] of 29 nM.

For orientation: solubility means the concentration that dissolves in the medium under given conditions. For `CN1CC[C@H](c2c(OP(=O)(O)O)cc(O)c3c(=O)cc(-c4ccccc4Cl)oc23)[C@H](O)C1` [TP-1287], the F in [26] was 182.3%. For the same compound, the solubility in series [27] turned out to be 9300 µg/mL (≈ 19.3 mM); in series [29] it was 9500 µg/mL (≈ 19.7 mM). In addition, in [28], the inhibition in vivo at 7.5 mg/kg was 109%. This compound also came in with a half-inhibitory concentration (IC50) in [30] of 84 nM.

One may read the GI50 as the concentration that inhibits growth by half. For orientation: half-life means how long it takes for the measured level to halve. For the compound `CC(=O)N[C@@H]1CCC[C@H](C(=O)Nc2cc(-c3cnn4c3CC(C)(C)C4)c(Cl)cn2)C1` [ZEMIRCICLIB], the concentration for 50% growth inhibition (GI50) in series [31] turned out to be 23 nM. Moreover, the half-life in [32], in series [33] and in series [34] was less than 1 h throughout. The IC50 in series [35] is 1100 nM; in series [36] it was 370 nM; in series [37], greater than 10000 nM; in series [38] it was greater than 10000 nM.
